The data set has as its system mice. The data set is described as follows: Maximum dose tolerated by mice.

Method: GMDP (10, 5.0, 2.5 and 1.0 μg), ManLAM (50, 25, 12.5 and 6.25 μg), and MAPG (1.0, 0.5, 0.25 and 0.125 mg) were each suspended in saline and injected intravenously into eight week old female NOD mice. […] Groups of 5 mice were tested and the incidence of diabetes compared to 17 saline treated and 14 BCG treated control mice.

`CC(=O)N[C@H]1[C@H](O[C@H]2[C@H](O[C@H](C)C(=O)N[C@@H](C)C(=O)N[C@H](CCC(=O)O)C(N)=O)[C@@H](NC(C)=O)C(O)O[C@@H]2CO)O[C@H](CO)[C@@H](O)[C@@H]1O` (stereo partly drawn) [GMDP, N-acetylglucosaminyl-N-acetylmuramyl-L-alanyl-D-isoglutamine]: the “maximum dose tolerated by mice” value stood at 10 µL·g.

The values are drawn from patent US7083798B1, “Method of immunomodulatory treatment of insulin dependent diabetes mellitus using mycobacterial cell wall compositions” (Centenary Institute of Cancer Medicine and Cell Biology, priority 1996, dated 2006).
